The numbers were not newly measured in US7498130B2, “Method of reducing viral load” (Massachusetts General Hospital, priority 2003, dated 2009), which cites them from elsewhere.

In one data set the test system is HIV. The note with it: infected cells.
The conditions of data set [1]: in vivo.

With antithrombin III [ATIII], the “lowering HIV viral loads” value with HIV is “inactive”. Also, in data set [1], the overall elimination half-life was 18.6 h.
